Experimental data from US5401749A, “9-amino-1,4ethano-1,2,3,4-tetrahydroacridine and related compounds” (Hoechst-Roussel Pharmaceuticals Inc., priority 1988, dated 1995).
Like-named read-outs stand apart in the source and are kept apart here.

Key:
Acetylcholinesterase = Acetylcholinesterase (Homo sapiens, UniProt P22303); test: Acetylcholinesterase Inhibition Assay (photometric method of Ellman et al.); type: biochemical
[1] = tested on: Scopolamine Induced Memory Deficit; test: Dark Avoidance Assay (reversal of scopolamine induced memory deficit); type: in vivo; conditions: mice, s.c., tested again after 24 hours
Description: This utility can also be ascertained by determining the ability of these compounds to restore cholinergically deficient memory in the Dark Avoidance Assay. In this assay mice are tested for their ability to remember an unpleasant stimulus for a period of 24 hours. A mouse is placed in a chamber that contains a dark compartment; a strong incadescent light drives it to the dark compartment, where an electric shock is administered through metal plates on the floor. The animal is removed from the testing apparatus and tested again, 24 hours later, for the ability to remember the electric shock.
If scopolamine, an anticholinergic that is known to cause memory impairment, is administered before an animal's initial exposure to the test chamber, the animal re-enters the dark compartment shortly after being placed in the test chamber 24 hours later. This effect of scopolamine is blocked by an active test compound, resulting in a greater interval before re-entry into the dark compartment.
The test results are expressed as the percent of a group of animals in which the effect of scopolamine is blocked, as manifested by an increased interval between being placed in the test chamber and re-entering the dark compartment. Results of Dark Avoidance Assay for some of the compounds of this invention are presented in Table 2 along with a result for a reference compound.

[2] = photometric method of Ellman et al., read-out: Acetylcholinesterase Inhibition IC50

Chain of Acetylcholinesterase (P22303 32-614): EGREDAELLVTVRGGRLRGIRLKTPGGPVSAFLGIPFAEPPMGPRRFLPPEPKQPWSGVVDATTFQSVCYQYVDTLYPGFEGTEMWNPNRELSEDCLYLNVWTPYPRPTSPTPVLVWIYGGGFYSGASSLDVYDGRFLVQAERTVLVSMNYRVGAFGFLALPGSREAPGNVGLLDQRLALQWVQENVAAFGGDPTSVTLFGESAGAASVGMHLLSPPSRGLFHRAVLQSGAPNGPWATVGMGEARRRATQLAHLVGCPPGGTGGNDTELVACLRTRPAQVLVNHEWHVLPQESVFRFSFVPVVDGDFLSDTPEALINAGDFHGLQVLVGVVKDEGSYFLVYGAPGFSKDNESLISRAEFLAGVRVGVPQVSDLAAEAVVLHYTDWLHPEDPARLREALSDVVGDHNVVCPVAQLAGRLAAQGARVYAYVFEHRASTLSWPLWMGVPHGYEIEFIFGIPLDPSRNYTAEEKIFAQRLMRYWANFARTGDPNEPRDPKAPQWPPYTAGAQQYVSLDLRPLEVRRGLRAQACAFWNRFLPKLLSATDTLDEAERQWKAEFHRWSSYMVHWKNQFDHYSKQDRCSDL

SMILES	IC50 (Acetylcholinesterase) [µM]	IC50 (Acetylcholinesterase; [2]) [µM]	also measured
c1ccc(Nc2c3c(nc4ccccc24)C2CCC3C2)cc1 (centres unmarked) [9-Phenylamino-1,4-methano-1,2,3,4-tetrahydroacridine]	> 1000		% of Animals with Scopolamine Induced Memory Deficit Reversal ([1]; 0.16 mg/kg of body weight): 20%
C1=CC2CCC1c1nc3ccccc3c(NCc3ccccc3)c12 (centres unmarked) [9-Benzylamino-1,4-dihydro-1,4-ethanoacridine]		52	
Cc1ccc2c(NCc3ccccc3)c3c(nc2c1)C1CCC3C1 (centres unmarked) [9-Benzylamino-1,4-methano-6-methyl-1,2,3,4-tetrahydroacridine]		31	
Nc1c2c(nc3ccccc13)C1C=CC2CC1 (centres unmarked) [9-Amino-1,4-dihydro-1,4-ethanoacridine]		1.4	
Nc1c2c(nc3cc(C(F)(F)F)ccc13)C1CCC2C1 (centres unmarked) [9-Amino-1,4-methano-1,2,3,4-tetrahydro-6-trifluoromethylacridine]	4		% of Animals with Scopolamine Induced Memory Deficit Reversal ([1]; 0.16 mg/kg of body weight): 20%
c1ccc(CNc2c3c(nc4ccccc24)C2CCC3CC2)cc1 [9-Benzylamino-1,4-ethano-1,2,3,4-tetrahydroacridine]		78	
c1ccc(CNc2c3c(nc4ccccc24)C2CCC3C2)cc1 (centres unmarked) [9-Benzylamino-1,4-methano-1,2,3,4-tetrahydroacridine]		> 1000	
Nc1c2c(nc3cc(F)ccc13)C1CCC2C1 (centres unmarked) [9-Amino-6-fluoro-1,4-methano-1,2,3,4-tetrahydroacridine]	0.08		% of Animals with Scopolamine Induced Memory Deficit Reversal ([1]; 0.63 mg/kg of body weight): 9%
Cc1ccc2c(N)c3c(nc2c1)C1CCC3C1 (centres unmarked) [9-Amino-1,4-methano-6-methyl-1,2,3,4-tetrahydroacridine]	0.3		% of Animals with Scopolamine Induced Memory Deficit Reversal ([1]; 2.5 mg/kg of body weight): 36%
Nc1c2c(nc3ccccc13)C1CCC2CC1 [9-Amino-1,4-ethano-1,2,3,4-tetrahydroacridine]		6.6	
FC(F)(F)c1ccc2c(NCc3ccccc3)c3c(nc2c1)C1CCC3C1 (centres unmarked) [9-Benzylamino-1,4-methano-1,2,3,4-tetrahydro-6-trifluoromethylacridine]		> 1000	
Nc1c2c(nc3ccccc13)C1CCC2C1 (centres unmarked) [9-Amino-1,4-methano-1,2,3,4-tetrahydroacridine]			% of Animals with Scopolamine Induced Memory Deficit Reversal ([1]; 2.5 mg/kg of body weight): 40%
CNC(=O)Oc1ccc2c(c1)[C@]1(C)CCN(C)[C@@H]1N2C [Physostigmine, reference compound]			% of Animals with Scopolamine Induced Memory Deficit Reversal ([1]; 0.31 mg/kg of body weight): 20%
